Data reported in US20240293336A1, “PERCUTANEOUS ABSORPTION FORMULATION FOR TREATING SLEEP DISORDERS” (SINSIN PHARM CO., LTD., priority 2016, published 2024).

How the values were obtained:
[1] = Observation of crystal formation in the patch; type: physicochemical
Description: (§1) 10 wt % melatonin was placed in a 70 mL vial and dissolved in methanol, and then 90 wt % adhesive was added thereto, followed by mixing in a roll mixer for 2 hours. Next, the mixture was allowed to stand for 30 minutes to remove bubbles, after which a silicone-treated polyethylene terephthalate release film was placed on a coating machine, and the mixed adhesive was dried, and then coated onto the release film to 70 μm. Thereafter, the resultant was dried in an oven at 80° C. for 3 minutes, and then a supporting layer film was laminated thereon and compressed using a roller press. The resultant was cut of a patch cutter, thereby manufacturing a patch having an area of 10 cm^2. Next, the physical properties of the patch and crystal formation were observed, and a percutaneous absorption test was performed.
as §1, with “Melatonin and a solubilizing agent were placed” for “10 wt % melatonin was placed”, “then an” for “then 90 wt %”, “coated on” for “coated onto”, “a support” for “a supporting”, “cut by using” for “cut of”, “were observed.” for “were observed, and a percutaneous absorption test was performed.”
A crystallization inhibitor was placed and dissolved in a 70 mL vial, and then a solubilizing agent, an antioxidant and melatonin were added and dissolved, after which an adhesive was added thereto, followed by mixing in a roll mixer for 2 hours. Next, the mixture was allowed to stand for 30 minutes to remove bubbles, after which a silicone-treated polyethylene terephthalate release film was placed on a coating machine, and the mixed adhesive was dried, and then coated on the release film to 70 μm. Thereafter, the resultant was dried in an oven at 80° C. for 3 minutes, and then a support layer film was laminated thereon and compressed using a roller press. The resultant was cut by using a patch cutter, thereby manufacturing a patch having an area of 10 cm^2. Next, the physical properties of the patch and crystal formation were observed.
A crystallization inhibitor was placed and dissolved in a 70 mL vial, and then a solubilizing agent, an antioxidant, a percutaneous absorption enhancer and melatonin were added thereto and dissolved, after which an adhesive was added thereto, followed by mixing in a roll mixer for 2 hours. […]

[2] = melatonin administered orally; cited from earlier work

Row | Crystal formation (after 1 month) (microscopic observation) [1] | crystal formation in visual observation [1] | SMILES | bioavailability [2] [%] | half-life [2]
1 | fine crystal formation | no crystal formation | CN1CCCC1=O [N-methyl pyrrolidone] |  | 
2 | fine crystal formation | no crystal formation | CCOCCOCCO [Transcutol CG, ethoxydiglycol] |  | 
3 |  |  | COc1ccc2[nH]cc(CCNC(C)=O)c2c1 [melatonin] | 20 | about 1 hour
